Earlier results as cited in US20250231185A1, “Coronavirus T Cell Epitopes, Megapools and Uses Thereof” (La Jolla Institute for Immunology, priority 2021, published 2025).

test system: CD8+ T cells; settings: CD8R (D) megapool epitopes; dominant = recognized by 3 or more donors/different studies; cited from earlier work

Row | Substance | Dominant
1 | 1760 (VTNNTFTLK) [compound 1760] | Yes (more dominant epitopes are defined by being recognized by 3 or more donors/different studies)
2 | 1761 (FGDDTVIEV) [compound 1761] | Yes (more dominant epitopes are defined by being recognized by 3 or more donors/different studies)
3 | 1762 (PTDNYITTY) [compound 1762] | Yes (more dominant epitopes are defined by being recognized by 3 or more donors/different studies)
4 | 1763 (QEILGTVSW) [compound 1763] | Yes (more dominant epitopes are defined by being recognized by 3 or more donors/different studies)
5 | 1764 (TTDPSFLGRY) [compound 1764] | Yes (more dominant epitopes are defined by being recognized by 3 or more donors/different studies)
6 | 1765 (YLATALLTL) [compound 1765] | Yes (more dominant epitopes are defined by being recognized by 3 or more donors/different studies)
7 | 1766 (SAPPAQYEL) [compound 1766] | Yes (more dominant epitopes are defined by being recognized by 3 or more donors/different studies)
8 | 1767 (NYMPYFFTL) [compound 1767] | Yes (more dominant epitopes are defined by being recognized by 3 or more donors/different studies)
9 | 1768 (ASMPTTIAK) [compound 1768] | Yes (more dominant epitopes are defined by being recognized by 3 or more donors/different studies)
10 | 1769 (ILFTRFFYV) [compound 1769] | Yes (more dominant epitopes are defined by being recognized by 3 or more donors/different studies)
11 | 1770 (YIFFASFYY) [compound 1770] | Yes (more dominant epitopes are defined by being recognized by 3 or more donors/different studies)
12 | 1771 (QLMCQPILLL) [compound 1771] | Yes (more dominant epitopes are defined by being recognized by 3 or more donors/different studies)
13 | 1772 (STFNVPMEK) [compound 1772] | Yes (more dominant epitopes are defined by being recognized by 3 or more donors/different studies)
14 | 1773 (FLPRVFSAV) [compound 1773] | Yes (more dominant epitopes are defined by being recognized by 3 or more donors/different studies)
15 | 1774 (FSAVGNICY) [compound 1774] | Yes (more dominant epitopes are defined by being recognized by 3 or more donors/different studies)
16 | 1775 (SLRPDTRYVL) [compound 1775] | Yes (more dominant epitopes are defined by being recognized by 3 or more donors/different studies)
17 | 1776 (FLLNKEMYL) [compound 1776] | Yes (more dominant epitopes are defined by being recognized by 3 or more donors/different studies)
18 | 1777 (TSEDMLNPNY) [compound 1777] | Yes (more dominant epitopes are defined by being recognized by 3 or more donors/different studies)
19 | 1778 (TPKYKFVRI) [compound 1778] | Yes (more dominant epitopes are defined by being recognized by 3 or more donors/different studies)
20 | 1779 (VRIQPGQTF) [compound 1779] | Yes (more dominant epitopes are defined by being recognized by 3 or more donors/different studies)
21 | 1780 (FLNGSCGSV) [compound 1780] | Yes (more dominant epitopes are defined by being recognized by 3 or more donors/different studies)
22 | 1781 (GTDLEGNFY) [compound 1781] | Yes (more dominant epitopes are defined by being recognized by 3 or more donors/different studies)
23 | 1782 (VLAWLYAAV) [compound 1782] | Yes (more dominant epitopes are defined by being recognized by 3 or more donors/different studies)
24 | 1783 (FLNRFTTTL) [compound 1783] | Yes (more dominant epitopes are defined by being recognized by 3 or more donors/different studies)
25 | 1784 (SAFAMMFVK) [compound 1784] | Yes (more dominant epitopes are defined by being recognized by 3 or more donors/different studies)
26 | 1785 (FLLPSLATV) [compound 1785] | Yes (more dominant epitopes are defined by being recognized by 3 or more donors/different studies)
27 | 1786 (MPASWVMRI) [compound 1786] | Yes (more dominant epitopes are defined by being recognized by 3 or more donors/different studies)
28 | 1787 (KLKDCVMYA) [compound 1787] | Yes (more dominant epitopes are defined by being recognized by 3 or more donors/different studies)

Row | Substance | Dominant
29 | 1788 (SMWALIISV) [compound 1788] | Yes (more dominant epitopes are defined by being recognized by 3 or more donors/different studies)
30 | 1790 (SEFSSLPSY) [compound 1790] | Yes (more dominant epitopes are defined by being recognized by 3 or more donors/different studies)
31 | 1791 (NTCDGTTFTY) [compound 1791] | Yes (more dominant epitopes are defined by being recognized by 3 or more donors/different studies)
32 | 1792 (FTYASALWEI) [compound 1792] | Yes (more dominant epitopes are defined by being recognized by 3 or more donors/different studies)
33 | 1795 (ALRANSAVK) [compound 1795] | Yes (more dominant epitopes are defined by being recognized by 3 or more donors/different studies)
34 | 1797 (CTDDNALAYY) [compound 1797] | Yes (more dominant epitopes are defined by being recognized by 3 or more donors/different studies)
35 | 1798 (YTELEPPCRF) [compound 1798] | Yes (more dominant epitopes are defined by being recognized by 3 or more donors/different studies)
36 | 1799 (VTDTPKGPK) [compound 1799] | Yes (more dominant epitopes are defined by being recognized by 3 or more donors/different studies)
37 | 1800 (MDLFMRIFTI) [compound 1800] | Yes (more dominant epitopes are defined by being recognized by 3 or more donors/different studies)
38 | 1801 (FVRATATIPI) [compound 1801] | Yes (more dominant epitopes are defined by being recognized by 3 or more donors/different studies)
39 | 1802 (IPIQASLPF) [compound 1802] | Yes (more dominant epitopes are defined by being recognized by 3 or more donors/different studies)
40 | 1803 (IVGVALLAVF) [compound 1803] | Yes (more dominant epitopes are defined by being recognized by 3 or more donors/different studies)
41 | 1804 (ALSKGVHFV) [compound 1804] | Yes (more dominant epitopes are defined by being recognized by 3 or more donors/different studies)
42 | 1805 (YLYALVYFL) [compound 1805] | Yes (more dominant epitopes are defined by being recognized by 3 or more donors/different studies)
43 | 1806 (VYFLQSINF) [compound 1806] | Yes (more dominant epitopes are defined by being recognized by 3 or more donors/different studies)
44 | 1807 (LLYDANYFL) [compound 1807] | Yes (more dominant epitopes are defined by being recognized by 3 or more donors/different studies)
45 | 1808 (FTSDYYQLY) [compound 1808] | Yes (more dominant epitopes are defined by being recognized by 3 or more donors/different studies)
46 | 1809 (YYQLYSTQL) [compound 1809] | Yes (more dominant epitopes are defined by being recognized by 3 or more donors/different studies)
47 | 1810 (HLVDFQVTI) [compound 1810] | Yes (more dominant epitopes are defined by being recognized by 3 or more donors/different studies)
48 | 1811 (QLRARSVSPK) [compound 1811] | Yes (more dominant epitopes are defined by being recognized by 3 or more donors/different studies)
49 | 1812 (RARSVSPKL) [compound 1812] | Yes (more dominant epitopes are defined by being recognized by 3 or more donors/different studies)
50 | 1813 (KLFIRQEEV) [compound 1813] | Yes (more dominant epitopes are defined by being recognized by 3 or more donors/different studies)
51 | 1814 (VFITLCFTLK) [compound 1814] | Yes (more dominant epitopes are defined by being recognized by 3 or more donors/different studies)
52 | 1815 (IMLIIFWFSL) [compound 1815] | Yes (more dominant epitopes are defined by being recognized by 3 or more donors/different studies)
53 | 1816 (IQYIDIGNY) [compound 1816] | Yes (more dominant epitopes are defined by being recognized by 3 or more donors/different studies)
54 | 1817 (KLGSLVVRC) [compound 1817] | Yes (more dominant epitopes are defined by being recognized by 3 or more donors/different studies)
55 | 1818 (LEYHDVRVVL) [compound 1818] | Yes (more dominant epitopes are defined by being recognized by 3 or more donors/different studies)

same assay, conditions: CD8RE megapool peptides (non-spike SARS-CoV-2 antigens); dominant epitope Yes/No; cited from earlier work

Row | Substance | Dominant
56 | 2901 (SLVKPSFYV) [compound 2901] | Yes (more dominant epitopes are defined by being recognized by 3 or more donors/different studies)
57 | 2902 (YVYSRVKNL) [compound 2902] | Yes (more dominant epitopes are defined by being recognized by 3 or more donors/different studies)
58 | 2903 (GTITVEELK) [compound 2903] | Yes (more dominant epitopes are defined by being recognized by 3 or more donors/different studies)
59 | 2904 (KLLEQWNLV) [compound 2904] | Yes (more dominant epitopes are defined by being recognized by 3 or more donors/different studies)
60 | 2905 (FLFLTWICL) [compound 2905] | Yes (more dominant epitopes are defined by being recognized by 3 or more donors/different studies)
61 | 2906 (NRFLYIIKL) [compound 2906] | Yes (more dominant epitopes are defined by being recognized by 3 or more donors/different studies)
62 | 2907 (TLACFVLAAV) [compound 2907] | Yes (more dominant epitopes are defined by being recognized by 3 or more donors/different studies)
63 | 2909 (RLFARTRSMW) [compound 2909] | Yes (more dominant epitopes are defined by being recognized by 3 or more donors/different studies)
64 | 2910 (SMWSFNPET) [compound 2910] | Yes (more dominant epitopes are defined by being recognized by 3 or more donors/different studies)
65 | 2911 (SELVIGAVIL) [compound 2911] | Yes (more dominant epitopes are defined by being recognized by 3 or more donors/different studies)
